Measurements taken from patent US8435978B2, “Substituted sulfonamide compounds” (Gruenenthal GmbH, priority 2006, dated 2013).
Counter-ions that a name gives are not always drawn. Like-named read-outs stand apart in the source and are kept apart here.

How the values were obtained:
B1R receptor of the rat = biological target: T1, B1R receptor of the rat (Rattus norvegicus, UniProt P97583); assay: Functional study on the bradykinin receptor 1 (B1R), FLIPR Ca2+ assay, rB1R cells; assay type: cell-based; conditions: agonist Des-Arg9-bradykinin 100 nM, % inhibition compared with the maximum achievable inhibition, read-out: B1R Antagonism, rat [10 μM] % Inhibition
T1 construct: host or cells: CHO K1 cells (Chinese hamster ovary), stably transfected
T1 sequence (P97583 1-337): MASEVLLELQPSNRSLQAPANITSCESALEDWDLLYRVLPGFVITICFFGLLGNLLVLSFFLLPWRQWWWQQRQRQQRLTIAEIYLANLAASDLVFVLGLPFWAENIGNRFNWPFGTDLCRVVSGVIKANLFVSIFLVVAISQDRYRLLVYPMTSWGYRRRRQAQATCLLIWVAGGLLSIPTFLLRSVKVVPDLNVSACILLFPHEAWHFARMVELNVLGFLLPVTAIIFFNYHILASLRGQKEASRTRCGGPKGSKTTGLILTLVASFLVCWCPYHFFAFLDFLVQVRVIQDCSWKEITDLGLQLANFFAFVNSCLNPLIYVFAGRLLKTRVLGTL
How it was run: (§1)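 Cells were dye-loaded 60 min at 37 °C, equilibrated 20 min at room temperature, then given 10 μM compound. Ten minutes later the species-matched agonist was added (0.5 nM Lys-Des-Arg9-bradykinin, human; 100 nM Des-Arg9-bradykinin, rat) and Ca2+ influx suppression expressed as % of maximum inhibition.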

human B1R receptor = biological target: T2, human B1R receptor (Homo sapiens, UniProt P46663); assay: Functional study on the bradykinin receptor 1 (B1R), FLIPR Ca2+ assay, hB1R cells; assay type: cell-based; conditions: agonist Lys-Des-Arg9-bradykinin 0.5 nM, % inhibition compared with the maximum achievable inhibition, read-out: B1R Antagonism, human [10 μM] % Inhibition
T2 construct: host or cells: CHO K1 cells (Chinese hamster ovary), stably transfected
T2 sequence (P46663 1-353): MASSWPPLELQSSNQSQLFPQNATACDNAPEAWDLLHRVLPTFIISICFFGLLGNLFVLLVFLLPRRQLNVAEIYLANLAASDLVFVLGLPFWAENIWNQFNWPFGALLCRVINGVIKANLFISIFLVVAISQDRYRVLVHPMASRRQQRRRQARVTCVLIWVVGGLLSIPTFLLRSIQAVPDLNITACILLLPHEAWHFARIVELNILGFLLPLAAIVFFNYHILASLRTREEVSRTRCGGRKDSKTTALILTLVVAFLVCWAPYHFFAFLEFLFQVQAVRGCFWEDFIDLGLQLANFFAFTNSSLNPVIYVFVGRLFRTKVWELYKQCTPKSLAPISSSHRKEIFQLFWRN
How it was run: as §1

| SMILES | inhibition at 10 µM (B1R receptor of the rat; CHO-K1, test substance 10 μM) | inhibition at 10 µM (human B1R receptor; CHO-K1, test substance 10 μM) | inhibition at 10 µM (B1R receptor of the rat; test substance 10 μM, rB1R CHO K1 cells) | inhibition at 10 µM (human B1R receptor; test substance 10 μM, hB1R CHO K1 cells) |
| --- | --- | --- | --- | --- |
| O=C(COCC1CCCCN1S(=O)(=O)c1c(Cl)cccc1Cl)N1CCN(CC2CCCCC2)CC1 (stereo not shown) [Example 499, 1-(4-(cyclohexylmethyl)piperazin-1-yl)-2-((1-(2,6-dichlorophenylsulfonyl)piperidin-2-yl)methoxy)ethanone] | 101% | 103% | – | – |
| CN1CCC(N2CCN(C(=O)COCC3CCCCN3S(=O)(=O)c3c(Cl)cccc3Cl)CC2)CC1 (stereo not shown) [Example 141, 2-((1-(2,6-dichlorophenylsulfonyl)piperidin-2-yl)methoxy)-1-(4-(1-methylpiperidin-4-yl)piperazin-1-yl)ethanone dihydrochloride] | 101% | 101% | – | – |
| COc1ccc(S(=O)(=O)N2CCCCC2COCC(=O)N2CCN(C3CCN(C)CC3)CC2)c2ccccc12 (stereo not shown) [Example 174, 2-((1-(4-methoxynaphthalen-1-ylsulfonyl)piperidin-2-yl)methoxy)-1-(4-(1-methylpiperidin-4-yl)piperazin-1-yl)ethanone dihydrochloride] | 98% | 101% | – | – |
| Cc1ccc(C)n1CCN1CCN(C(=O)COCC2CCCN2S(=O)(=O)c2c(Cl)cccc2Cl)CC1 (stereo not shown) [Example 287, 2-((1-(2,6-dichlorophenylsulfonyl)pyrrolidin-2-yl)methoxy)-1-(4-(2-(2,5-dimethyl-1H-pyrrol-1-yl)ethyl)piperazin-1-yl)ethanone] | 89.2% | 101% | – | – |
| Cc1cc(Br)cc(C)c1S(=O)(=O)N1CCCCC1COCC(=O)N1CCC(CCN2CCCC2)CC1 (stereo not shown) [Example 149, 2-((1-(4-bromo-2,6-dimethylphenylsulfonyl)piperidin-2-yl)methoxy)-1-(4-(2-(pyrrolidin-1-yl)ethyl)piperidin-1-yl)ethanone] | 100% | 99.4% | – | – |
| COc1cc(C)c(S(=O)(=O)N2CCCCC2COCC(=O)N2CCN(Cc3cccc(C#N)c3)CC2)c(C)c1 (stereo not shown) [Example 92, 3-((4-(2-((1-(4-methoxy-2,6-dimethylphenylsulfonyl)piperidin-2-yl)methoxy)acetyl)-piperazin-1-yl)methyl)benzonitrile hydrochloride] | 101% | 103% | – | – |
| O=C(COCC1CCCCN1S(=O)(=O)c1cccc(C(F)(F)F)c1)N1CCCCC1c1cncc(Br)c1 (stereo not shown) [Example 224, 1-(2-(5-bromopyridin-3-yl)piperidin-1-yl)-2-((1-(3-(trifluoromethyl)phenylsulfonyl)piperidin-2-yl)methoxy)ethanone] | 52.8% | 72.1% | – | – |
| COc1cc(C)c(S(=O)(=O)N2CCCCC2COCC(=O)NCCN(C)C)c(C)c1 (stereo not shown) [Example 259, N-(2-(dimethylamino)ethyl)-2-((1-(4-methoxy-2,6-dimethylphenylsulfonyl)piperidin-2-yl)methoxy)acetamide] | 99.3% | 66.1% | – | – |
| COc1cc(C)c(S(=O)(=O)N2CCCC2COCC(=O)NC(CN2CCCC2)c2ccccc2)c(C)c1 (stereo not shown) [Example 505, 2-((1-(4-methoxy-2,6-dimethylphenylsulfonyl)pyrrolidin-2-yl)methoxy)-N-(1-phenyl-2-(pyrrolidin-1-yl)ethyl)acetamide] | 101% | 74% | – | – |
| COc1cc(C)c(S(=O)(=O)N2CCCCC2COCC(=O)Nc2ccc(N3CCOCC3)cc2)c(C)c1 (stereo not shown) [Example 438, 2-((1-(4-methoxy-2,6-dimethylphenylsulfonyl)piperidin-2-yl)methoxy)-N-(4-morpholinophenyl)acetamide] | 100% | 22.1% | – | – |
| COc1cc(C)c(S(=O)(=O)N2CCCCC2COCC(=O)N2CCN(C3CCC(C(F)(F)F)CC3)CC2)c(C)c1 (stereo not shown) [Example 134, 2-((1-(4-methoxy-2,6-dimethylphenylsulfonyl)piperidin-2-yl)methoxy)-1-(4-(4-(trifluoromethyl)cyclohexyl)piperazin-1-yl)ethanone] | 98.2% | 102% | – | – |
| COc1cc(C)c(S(=O)(=O)N2CCCC2COCC(=O)N(C)C(CN2CCN(C)CC2)c2ccccc2)c(C)c1 (stereo not shown) [Example 446, 2-((1-(4-methoxy-2,6-dimethylphenylsulfonyl)pyrrolidin-2-yl)methoxy)-N-methyl-N-(2-(4-methylpiperazin-1-yl)-1-phenylethyl)acetamide] | 99.8% | 95% | – | – |
| COc1cc(C)c(S(=O)(=O)N2CCCCC2COCC(=O)N2CCC(=O)CC2)c(C)c1 (stereo not shown) [Example 116, 1-(2-((1-(4-methoxy-2,6-dimethylphenylsulfonyl)piperidin-2-yl)methoxy)acetyl)piperidin-4-one] | – | – | 101% | 74.2% |
| O=C(COCC1CCCCN1S(=O)(=O)c1cccc(Br)c1)N1CCN(c2ccncc2)CC1 (stereo not shown) [Example 122, 2-((1-(3-bromophenylsulfonyl)piperidin-2-yl)methoxy)-1-(4-(pyridin-4-yl)piperazin-1-yl)ethanone] | 13% | 12.1% | – | – |
| COc1cc(C)c(S(=O)(=O)N2CCCC2COCC(=O)N2CCCCC2Cc2ccccn2)c(C)c1 (stereo not shown) [Example 449, 2-((1-(4-methoxy-2,6-dimethylphenylsulfonyl)pyrrolidin-2-yl)methoxy)-1-(2-(pyridin-2-ylmethyl)piperidin-1-yl)ethanone] | 99.7% | 90.8% | – | – |
| Cc1cc(C)c(S(=O)(=O)N2Cc3ccccc3CC2COCC(=O)NCc2ccc(CN3CCCC3)cc2)c(C)c1 (stereo not shown) [Example 83, N-(4-pyrrolidin-1-ylmethyl-benzyl)-2-[2-(2,4,6-trimethyl-phenylsulfonyl)-1,2,3,4-tetrahydro-isoquinolin-3-ylmethoxy]-acetamide] | 30.8% | 43.9% | – | – |
| COc1cc(OC)cc(N2CCN(C(=O)COCC3CCCN3S(=O)(=O)c3c(C)cc(OC)cc3C)CC2)c1 (stereo not shown) [Example 503, 1-(4-(3,5-dimethoxyphenyl)piperazin-1-yl)-2-((1-(4-methoxy-2,6-dimethylphenylsulfonyl)pyrrolidin-2-yl)methoxy)ethanone] | 97.9% | 103% | – | – |
| CN1CCC(N2CCN(C(=O)COCC3CCCN3S(=O)(=O)c3ccc(Cl)c(Cl)c3)CC2)CC1 (stereo not shown) [Example 62, 2-[1-(3,4-dichloro-phenylsulfonyl)-pyrrolidin-2-ylmethoxy]-1-[4-(1-methyl-piperidin-4-yl)-piperazin-1-yl]-ethanone] | 34% | 59.6% | – | – |
| COc1ccc(S(=O)(=O)N2CCCCC2CCOCC(=O)N2CCN(CCN3CCCCC3)CC2)cc1 (stereo not shown) [Example 221, 2-(2-(1-(4-methoxyphenylsulfonyl)piperidin-2-yl)ethoxy)-1-(4-(2-(piperidin-1-yl)ethyl)piperazin-1-yl)ethanone] | 89.6% | 38% | – | – |
| COc1ccc(-c2cc(NC(=O)COCC3CCCCN3S(=O)(=O)c3c(C)cc(OC)cc3C)n[nH]2)cc1 (stereo not shown) [Example 543, 2-((1-(4-methoxy-2,6-dimethylphenylsulfonyl)piperidin-2-yl)methoxy)-N-(5-(4-methoxyphenyl)-1H-pyrazol-3-yl)acetamide] | 105% | 21.1% | – | – |
| O=C(COCC1CCCCN1S(=O)(=O)c1ccc(Cl)c(Cl)c1)N1CCC(Cc2ccccc2)CC1 (stereo not shown) [Example 57, 1-(4-benzyl-piperidin-1-yl)-2-[1-(3,4-dichloro-phenylsulfonyl)-piperidin-2-ylmethoxy]-ethanone] | 0% | 62.4% | – | – |
| COc1cc(C)c(S(=O)(=O)N2CCCC2COCC(=O)N2CCN(Cc3ccc(Br)cc3)CC2)c(C)c1 (stereo not shown) [Example 350, 1-(4-(4-bromobenzyl)piperazin-1-yl)-2-((1-(4-methoxy-2,6-dimethylphenylsulfonyl)pyrrolidin-2-yl)methoxy)ethanone] | 104% | 104% | – | – |
| COc1cc(C)c(S(=O)(=O)N2CCCCC2COCC(=O)N2CCC(N3CCc4cnccc4C3)CC2)c(C)c1 (stereo not shown) [Example 100, 1-(4-(3,4-dihydro-2,6-naphthyridin-2(1H)-yl)piperidin-1-yl)-2-((1-(4-methoxy-2,6-dimethylphenylsulfonyl)piperidin-2-yl)methoxy)ethanone] | 102% | 104% | – | – |
